Assay results published in paper PMC9490236, “Accurate de novo design of membrane-traversing macrocycles” (Cell, 2022).
Where a SMILES comes first, the peptide text is derived from it. [ ]: non-standard residue; d: D form. NMeF = CN[C@@H](Cc1ccccc1)C(=O)O; dNMeF = CN[C@H](Cc1ccccc1)C(=O)O; NMeL = CN[C@@H](CC(C)C)C(=O)O; dNMeL = CN[C@H](CC(C)C)C(=O)O; dNMeA = CN[C@H](C)C(=O)O

Tests used:
[1] = in vitro; conditions: PAMPA, PAMPA_Papp_Avg
[2] = PAMPA

Molecule: CC(C)C[C@H]1NC(=O)[C@@H]2CCCN2C(=O)[C@H]2CCCN2C(=O)[C@H](C(C)C)NC(=O)[C@@H](CC(C)C)NC(=O)[C@@H]2CCCN2C(=O)[C@H]2CCCN2C(=O)[C@H](C(C)C)NC1=O (single isomer, unassigned) [D8.12 p1, DLEU VAL DPRO PRO DLEU VAL DPRO PRO]
- Papp [1]: 0.169 ×10⁻⁶ cm/s
- PAMPA_R1 [2]: 1.52E-07
- PAMPA_R3 [2]: 1.92E-07

Molecule: CC(C)[C@@H]1C(=O)N[C@@H](Cc2ccccc2)C(=O)N2CCC[C@H]2C(=O)N(C)[C@H](Cc2ccccc2)C(=O)N[C@H](C)C(=O)N2CCC[C@H]2C(=O)N1C (single isomer, unassigned) [Design D6.8.p1, *DPHE DALA PRO *DVAL PHE PRO]
- Papp [1]: 3.47 ×10⁻⁶ cm/s
- PAMPA_R1 [2]: 4.07e-06 cm/s
- PAMPA_R3 [2]: 3.58e-06 cm/s

Molecule: CC(C)C[C@H]1C(=O)N2CCC[C@@H]2C(=O)N[C@@H](Cc2ccccc2)C(=O)N2CCC[C@H]2C(=O)N[C@H](C(C)C)C(=O)N[C@H](Cc2ccccc2)C(=O)N1C (single isomer, unassigned) [Design D6.9.p1, DVAL DPHE *LEU DPRO PHE PRO]
- Papp [1]: 5.29 ×10⁻⁶ cm/s
- PAMPA_R1 [2]: 4.01e-06 cm/s
- PAMPA_R3 [2]: 6.97e-06 cm/s

Molecule: CC(C)C[C@H]1NC(=O)[C@H]2CCCN2C(=O)[C@@H]2CCCN2C(=O)[C@@H](Cc2ccccc2)NC(=O)[C@@H](C(C)C)NC(=O)[C@H](CC(C)C)N(C)C(=O)[C@@H](Cc2ccccc2)NC1=O (single isomer, unassigned) [Design D7.7.p1, PRO DPRO DLEU DPHE *LEU DVAL DPHE]
- Papp [1]: 8.43 ×10⁻⁶ cm/s
- PAMPA_R1 [2]: 8.16e-06 cm/s
- PAMPA_R3 [2]: 9.31e-06 cm/s

Molecule: CC[C@H](C)[C@@H]1NC(=O)[C@H](Cc2ccccc2)NC(=O)[C@H]2CCCN2C(=O)[C@H]([C@@H](C)CC)NC(=O)[C@H](C(C)C)NC(=O)[C@@H](C)NC(=O)[C@H]2CCCN2C1=O (single isomer, unassigned) [Design D7.8.p1, VAL ILE DPRO PHE ILE DPRO DALA]
- Papp [1]: 4.87 ×10⁻⁶ cm/s
- PAMPA_R1 [2]: 4.5e-06 cm/s
- PAMPA_R3 [2]: 6.04e-06 cm/s

Molecule: CC[C@@H](C)[C@H]1NC(=O)[C@H](CC(C)C)N(C)C(=O)[C@H]2CCCN2C(=O)[C@H](CC(C)C)NC(=O)[C@H](Cc2ccccc2)N(C)C(=O)CN(C)C(=O)[C@@H](C(C)C)NC(=O)[C@H](C)NC(=O)[C@H]2CCCN2C(=O)[C@@H]2CCCN2C1=O (single isomer, unassigned) [Design D10.58.p1, *GLY *PHE LEU DPRO *LEU DILE PRO DPRO ALA DVAL]
- Papp [1]: 0.376 ×10⁻⁶ cm/s
- PAMPA_R1 [2]: 3.35E-07
- PAMPA_R3 [2]: 4.44E-07

Molecule: CC[C@@H](C)[C@H]1NC(=O)[C@H](CC(C)C)N(C)C(=O)[C@H]2CCCN2C(=O)[C@H](CC(C)C)NC(=O)[C@@H](Cc2ccccc2)N(C)C(=O)[C@H](CC(C)C)N(C)C(=O)[C@@H](C(C)C)NC(=O)[C@H](C)NC(=O)[C@H]2CCCN2C(=O)[C@@H]2CCCN2C1=O (single isomer, unassigned) [Design D10.60.p1, *LEU *DPHE LEU DPRO *LEU DILE PRO DPRO ALA DVAL]
- Papp [1]: 0.65 ×10⁻⁶ cm/s
- PAMPA_R1 [2]: 6.58E-07
- PAMPA_R3 [2]: 1.13E-06

Molecule: CC(C)C[C@@H]1C(=O)N(C)[C@@H](CC(C)C)C(=O)N2CCC[C@@H]2C(=O)N[C@H](CC(C)C)C(=O)N[C@H](C)C(=O)N2CCC[C@@H]2C(=O)N2CCC[C@H]2C(=O)N[C@@H](C)C(=O)N[C@H](Cc2ccccc2)C(=O)N[C@H](CC(C)C)C(=O)N[C@@H](C(C)C)C(=O)N1C (single isomer, unassigned) [Design D11.9.p1, VAL *DLEU *LEU DPRO DLEU DALA DPRO PRO ALA DPHE DLEU]
- Papp [1]: 0.641 ×10⁻⁶ cm/s
- PAMPA_R1 [2]: 1.04E-06
- PAMPA_R3 [2]: 2.42E-07

Molecule: CC[C@@H](C)[C@H]1NC(=O)[C@@H](Cc2ccccc2)NC(=O)[C@@H]2CCCN2C(=O)[C@@H]([C@H](C)CC)NC(=O)[C@@H](Cc2ccccc2)NC(=O)[C@@H]2CCCN2C1=O [Design D6.1, DILE PRO DPHE DILE PRO DPHE] (cyclo(P[dF][dI]P[dF][dI]))
- Papp [1]: 3.34 ×10⁻⁶ cm/s
- PAMPA_R1 [2]: 3.78e-06 cm/s
- PAMPA_R3 [2]: 3.92e-06 cm/s

Molecule: CC[C@@H](C)[C@H]1NC(=O)[C@@H](Cc2ccccc2)N(C)C(=O)[C@@H]2CCCN2C(=O)[C@@H]([C@H](C)CC)NC(=O)[C@@H](Cc2ccccc2)N(C)C(=O)[C@@H]2CCCN2C1=O [Design D6.2, DILE PRO *DPHE DILE PRO *DPHE] (cyclo(P[dNMeF][dI]P[dNMeF][dI]))
- Papp [1]: 12.1 ×10⁻⁶ cm/s
- PAMPA_R1 [2]: 1.72e-05 cm/s
- PAMPA_R3 [2]: 1.15e-05 cm/s

Molecule: CC[C@@H](C)[C@H]1NC(=O)[C@@H](C)NC(=O)[C@@H](CC(C)C)NC(=O)[C@@H](Cc2ccccc2)NC(=O)[C@@H]2CCCN2C(=O)[C@@H]2CCCN2C(=O)[C@@H](CC(C)C)N(C)C(=O)[C@@H](C)N(C)C(=O)[C@@H](CC(C)C)NC(=O)[C@H](CC(C)C)NC(=O)[C@@H](Cc2ccccc2)NC1=O [Design D11.18, DALA DILE DPHE LEU DLEU *DALA *DLEU PRO PRO DPHE DLEU] (cyclo(L[dL][dNMeA][dNMeL]PP[dF][dL][dA][dI][dF]))
- PAMPA_Papp_Avg [2]: BQL
- PAMPA_R1 [2]: BQL
- PAMPA_R3 [2]: BQL

Molecule: CC[C@@H](C)[C@H]1NC(=O)[C@@H](CC(C)C)NC(=O)[C@@H](CC(C)C)NC(=O)[C@@H](C)NC(=O)[C@@H](CC(C)C)NC(=O)[C@H]2CCCN2C(=O)[C@@H]2CCCN2C(=O)[C@H]2CCCN2C(=O)[C@@H](C)NC(=O)[C@@H](CC(C)C)N(C)C(=O)[C@H]2CCCN2C1=O [Design D11.19, DILE DPRO *DLEU DALA DPRO PRO DPRO DLEU DALA DLEU DLEU] (cyclo([dP][dL][dA][dL][dL][dI][dP][dNMeL][dA][dP]P))
- PAMPA_Papp_Avg [2]: BQL
- PAMPA_R1 [2]: BQL
- PAMPA_R3 [2]: BQL

Molecule: CC[C@@H](C)[C@H]1NC(=O)[C@@H](CC(C)C)N(C)C(=O)[C@@H](CC(C)C)N(C)C(=O)[C@H](CC(C)C)NC(=O)[C@@H](CC(C)C)N(C)C(=O)[C@H](Cc2ccccc2)NC(=O)[C@H](CC(C)C)NC(=O)[C@@H]2CCCN2C(=O)[C@H]2CCCN2C(=O)[C@@H]2CCCN2C(=O)[C@H](CC(C)C)NC1=O [Design D11.22, PHE *DLEU LEU *DLEU *DLEU DILE LEU PRO DPRO PRO LEU] (cyclo(LF[dNMeL]L[dNMeL][dNMeL][dI]LP[dP]P))
- PAMPA_Papp_Avg [2]: BQL
- PAMPA_R1 [2]: BQL
- PAMPA_R3 [2]: BQL

Molecule: CC[C@H](C)[C@@H]1NC(=O)[C@H]2CCCN2C(=O)[C@@H](CC(C)C)N(C)C(=O)[C@H](CC(C)C)NC(=O)[C@@H](C)N(C)C(=O)[C@H]2CCCN2C(=O)[C@@H](CC(C)C)NC(=O)[C@@H](C(C)C)NC(=O)[C@H](CC(C)C)NC(=O)[C@@H](C)NC(=O)[C@@H](Cc2ccccc2)NC(=O)[C@H]2CCCN2C1=O [Design D12.2, ILE DPRO DPHE DALA LEU DVAL DLEU DPRO *DALA LEU *DLEU DPRO] (cyclo(I[dP][dF][dA]L[dV][dL][dP][dNMeA]L[dNMeL][dP]))
- PAMPA_Papp_Avg [2]: BQL
- PAMPA_R1 [2]: BQL
- PAMPA_R3 [2]: BQL

Molecule: CC[C@@H](C)[C@H]1NC(=O)[C@H](C(C)C)NC(=O)[C@H]2CCCN2C(=O)[C@@H]2CCCN2C(=O)[C@H](Cc2ccccc2)NC(=O)[C@@H](CC(C)C)NC(=O)[C@H](Cc2ccccc2)NC(=O)[C@@H]2CCCN2C(=O)[C@@H](C)N(C)C(=O)[C@@H]2CCCN2C(=O)[C@H](CC(C)C)NC(=O)[C@H](CC(C)C)N(C)C1=O [Design D12.4, PRO *DALA PRO PHE DLEU PHE PRO DPRO VAL DILE *LEU LEU] (cyclo(FP[dP]V[dI][NMeL]LP[dNMeA]PF[dL]))
- PAMPA_Papp_Avg [2]: BQL
- PAMPA_R1 [2]: BQL
- PAMPA_R3 [2]: BQL

Molecule: CC[C@@H](C)[C@H]1NC(=O)[C@@H](CC(C)C)N(C)C(=O)[C@H](CC(C)C)NC(=O)[C@@H](C(C)C)NC(=O)[C@@H]2CCCN2C(=O)[C@H]2CCCN2C(=O)[C@@H]([C@H](C)CC)NC(=O)[C@@H](C)N(C)C(=O)[C@@H]([C@H](C)CC)NC(=O)[C@H](Cc2ccccc2)N(C)C(=O)[C@H]2CCCN2C(=O)[C@@H](Cc2ccccc2)NC1=O [Design D12.7, DPHE DPRO *PHE DILE *DALA DILE DPRO PRO DVAL LEU *DLEU DILE] (cyclo([dV]L[dNMeL][dI][dF][dP][NMeF][dI][dNMeA][dI][dP]P))
- PAMPA_Papp_Avg [2]: BQL
- PAMPA_R1 [2]: BQL
- PAMPA_R3 [2]: BQL

Molecule: CC[C@H](C)[C@@H]1NC(=O)[C@H](C)NC(=O)[C@H](CC(C)C)NC(=O)[C@@H]2CCCN2C(=O)[C@@H](C(C)C)NC(=O)[C@H](CC(C)C)NC(=O)[C@@H]2CCCN2C(=O)[C@H]2CCCN2C(=O)[C@H](C)NC(=O)[C@H](Cc2ccccc2)NC(=O)[C@@H](CC(C)C)NC(=O)[C@H]2CCCN2C1=O [Design D12.8, PHE ALA DPRO PRO LEU DVAL PRO LEU ALA ILE DPRO DLEU] (cyclo(L[dV]PLAI[dP][dL]FA[dP]P))
- PAMPA_Papp_Avg [2]: BQL
- PAMPA_R1 [2]: BQL
- PAMPA_R3 [2]: BQL

Molecule: CC[C@@H](C)[C@H]1NC(=O)[C@@H]2CCCN2C(=O)[C@H](CC(C)C)NC(=O)[C@@H](CC(C)C)NC(=O)[C@@H](Cc2ccccc2)NC(=O)[C@@H](Cc2ccccc2)NC(=O)[C@@H](C)NC(=O)[C@H]2CCCN2C(=O)[C@@H]2CCCN2C(=O)[C@@H](C(C)C)NC(=O)[C@@H]2CCCN2C(=O)[C@H]2CCCN2C1=O [Design D12.9, DILE DPRO PRO DVAL PRO DPRO DALA DPHE DPHE DLEU LEU PRO] (cyclo([dV]P[dP][dA][dF][dF][dL]LP[dI][dP]P))
- PAMPA_Papp_Avg [2]: BQL
- PAMPA_R1 [2]: BQL
- PAMPA_R3 [2]: BQL

Molecule: *DPHE *LEU PRO DLEU VAL *DLEU PRO DILE *ALA *ALA [Design D10.65]
- PAMPA_Papp_Avg [2]: BQL
- PAMPA_R1 [2]: BQL
- PAMPA_R3 [2]: BQL

Molecule: DPRO PRO *DLEU DALA PRO *DLEU ALA *GLY *DVAL DPHE [Design D10.7]
- PAMPA_Papp_Avg [2]: BQL
- PAMPA_R1 [2]: BQL
- PAMPA_R3 [2]: BQL

Molecule: PRO DPRO DALA DPHE DLEU ILE DPHE *DALA LEU PRO NLE [Design D11.14.p1]
- PAMPA_Papp_Avg [2]: BQL
- PAMPA_R1 [2]: BQL
- PAMPA_R3 [2]: BQL

Molecule: PRO DPRO DALA DPHE DLEU ILE DPHE *DALA LEU PRO NLE [Design D11.14.p2]
- PAMPA_Papp_Avg [2]: BQL
- PAMPA_R1 [2]: BQL
- PAMPA_R3 [2]: BQL

Molecule: PRO DPRO DPHE *DLEU *DPHE DLEU ILE PRO *DLEU LEU [Design D10.15]
- PAMPA_Papp_Avg [2]: BQL
- PAMPA_R1 [2]: BQL
- PAMPA_R3 [2]: BQL
